# Test results as given in EPA's ToxValDB 9.5 (doi:10.2903/j.efsa.2010.1682).
# Experiments:
# Allium cepa = details: not reported; seedling emergence
# Apis mellifera = details: acute, duration: 72 hours, mortality
# Bibionidae = details: chronic/long-term
# Canidae = details: oral, Dog Other, organ weight
# Cucumis sativus = details: not reported; seedling emergence
# Daphnia magna = details: chronic/long-term; duration: 21 days; reproduction
# Typhlodromus pyri = details: not reported
smiles,measurement,setting,value
CCCCC(C#N)(Cn1cncn1)c1ccc(Cl)cc1 (centres undefined) [Myclobutanil],LEL,Allium cepa,300 g/ha
same,NOEC,Anas platyrhynchos; reproductive,31.6 mg/kg-day
same,LC50,"Anas platyrhynchos; short-term, oral, feed, mortality",> 1540 mg/kg-day
same,LD50,Apis mellifera; dermal,> 39.6 µg/piece
same,LD50,"Apis mellifera; oral, unspecified",> 33.9 µg/piece
same,NOEC,Bibionidae,6.07 mg/kg
same,NOEC,Bibionidae; duration: 30 days,4.98 mg/L
same,NOAEL,"Canidae; chronic, duration: 1 years",3.09 mg/kg-day
same,NOAEL,"Canidae; subchronic, duration: 90 days",3.09 mg/kg-day
same,LC50,"Colinus virginianus; acute, oral, diet, mortality",> 567 mg/kg-day
same,LD50,"Colinus virginianus; acute, oral, mortality",510 mg/kg-day
same,NOEC,Colinus virginianus; reproduction developmental,24.2 mg/kg-day
same,LEL,Cucumis sativus,300 g/ha
same,NOEC,Daphnia magna,1 mg/L
same,LC50,"Oncorhynchus mykiss; acute, duration: 96 hours, mortality",2 mg/L
same,NOEC,"Oncorhynchus mykiss; chronic/long-term, duration: 21 days, growth",0.2 mg/L
same,LD50,"Rattus norvegicus; acute, oral, M, mortality",1600 mg/kg-day
same,NOAEL,"Rattus norvegicus; chronic, duration: 2 years, histopathology: nonneoplastic",2.5 mg/kg-day
same,NOAEL,"Rattus norvegicus; developmental, development",31 mg/kg-day
same,NOEL,"Rattus norvegicus; reproduction developmental, reproduction",16 mg/kg-day
same,LC50,"Tagia sp.; acute, mortality",250 mg/kg
same,NOEC,Tagia sp.; chronic/long-term,10.3 mg/kg
same,LEL,Typhlodromus pyri; mortality,36 g/ha
same,LEL,Typhlodromus pyri; reproduction,36 g/ha
